Measurements from US6770597B2, “Benzohydrazide derivatives as herbicides and desiccant compositions containing them” (Ishihara Sangyo Kaisha, Ltd., priority 2002, dated 2004).

Assays:
Assay type in all cases: in vivo
[1] = test system: barnyardgrass (Echinochloa crus-galli, ECHCG); assay: Greenhouse herbicide screen, post-emerge application, phytotoxicity rating; conditions: POST emergent, 14 days after application, scale 0-100
Source text: (§1) A standard greenhouse herbicide activity screening system was used to evaluate the herbicidal efficacy and crop safety of these test compounds. Seven broadleaf weed species including redroot pigweed (Amaranthus retrofiexus, AMARE), velvetleaf (Abutilon theophrasti, ABUTH), sicklepod (Cassia obtusifolia, CASOB), ivyleaf morningglory (Ipomoea hederacea, IPOHE), lambsquarters (Chenopodium album, CHEAL), common ragweed (Ambrosia artemisiifolia L., AMBEL), and cocklebur (Xanthium strumarium, XANST) were used as test species. Four grass weed species including green foxtail (Setaria viridis, SETVI), barnyardgrass (Echinochloa crus-galli, ECHCG), johnsongrass (Sorghum halepense, SORHA), and large crabgrass (Digitaria sanguinalis, DIGSA) were also used. In addition, four crop species, field corn (Zea mays L., var. Dekalb 535, CORN), soybean (Glycine max L., var. Pella 86, SOY), upland rice (Oryza sp., var.Cocodrie, RICE) and wheat (Triticum aestivum L.) were included.
(§2) All plants were grown in 10 cm square plastic pots which were filled with a sandy loam soil mix. For pre-emerge tests, seeds were planted one day prior to application of the test compounds. For post-emerge tests, seeds were planted 8-21 days prior to the test to allow emergence and good foliage development prior to application of the test substances. At the time of the post-emerge application, plants of all species were usually at the 2-3 leaf stage of development.
(§3) All test compounds were dissolved in acetone and applied to the test units in a volume of 187 l/ha. Test materials were applied at rates ranging from 15 g ai/ha to 1000 g ai/ha using a track sprayer equipped with a TJ8001E even flow flat fan spray nozzle. Plants were arranged on a shelf so that the top of the canopy (post-emerge) or top of the soil surface (pre-emerge) was 40-45 cm below the nozzle. Pressurized air was used to force the test solution through the nozzle as it was mechanically advanced (via electrically driven chain drive) over the top of all test plants/pots. This application simulates a typical commercial field herbicide application.
(§4) Pre-emergence tests were top watered immediately after treatment to incorporate the test materials, then routinely top-watered for normal growth. Post-emerge test units were always bottom-watered.
(§5) At 14 days after application of the test materials, phytotoxicity ratings were recorded. A rating scale of 0-100 was used as previously described in Research Methods in Weed Science, 2nd edition, B. Truelove, Ed., Southern Weed Science Society, Auburn University, Auburn, Ala., 1977. Briefly, “0” corresponds to no damage and “100” corresponds to complete death of all plants in the test unit. This scale was used both to determine efficacy against weed species and damage to crop species. Herbicide activity data for various compounds of this invention, which are shown by compound No. in Tables 1-12, are shown in Tables 13 and 14.

[2] = test system: green foxtail (Setaria viridis, SETVI); assay: as above; conditions: POST emergent, 14 days after application, scale 0-100
Source text: as §1, §2, §3, §4, §5

[3] = test system: velvetleaf (Abutilon theophrasti, ABUTH); assay: as above; conditions: POST emergent, 14 days after application, scale 0-100
Source text: as §1, §2, §3, §4, §5

[4] = test system: redroot pigweed (Amaranthus retrofiexus, AMARE); assay: as above; conditions: POST emergent, 14 days after application
Source text: as §1, §2, §3, §4, §5

[5] = test system: large crabgrass (Digitaria sanguinalis, DIGSA); assay: as above; conditions: POST emergent, 14 days after application, scale 0-100
Source text: as §1, §2, §3, §4, §5

[6] = test system: common ragweed (Ambrosia artemisiifolia L., AMBEL); assay: as above; conditions: POST emergent, 14 days after application, scale 0-100
Source text: as §1, §2, §3, §4, §5

[7] = test system: sicklepod (Cassia obtusifolia, CASOB); assay: as above; conditions: POST emergent, 14 days after application, scale 0-100
Source text: as §1, §2, §3, §4, §5

[8] = test system: ivyleaf morningglory (Ipomoea hederacea, IPOHE); assay: as above; conditions: POST emergent, 14 days after application, scale 0-100
Source text: as §1, §2, §3, §4, §5

[9] = test system: lambsquarters (Chenopodium album, CHEAL); assay: as above; conditions: POST emergent, 14 days after application, scale 0-100
Source text: as §1, §2, §3, §4, §5

[10] = test system: cocklebur (Xanthium strumarium, XANST); assay: as above; conditions: POST emergent, 14 days after application, scale 0-100
Source text: as §1, §2, §3, §4, §5

[11] = test system: johnsongrass (Sorghum halepense, SORHA); assay: as above; conditions: POST emergent, 14 days after application, scale 0-100
Source text: as §1, §2, §3, §4, §5

[12] = test system: barnyardgrass (Echinochloa crus-galli, ECHCG); assay: Greenhouse herbicide screen, pre-emerge application, phytotoxicity rating; conditions: PRE emergent, 14 days after application, rating scale 0-100
Source text: as §1, §2, §3, §4, §5

[13] = test system: green foxtail (Setaria viridis, SETVI); assay: as above; conditions: PRE emergent, 14 days after application, rating scale 0-100
Source text: as §1, §2, §3, §4, §5

[14] = test system: velvetleaf (Abutilon theophrasti, ABUTH); assay: as above; conditions: PRE emergent, 14 days after application, rating scale 0-100
Source text: as §1, §2, §3, §4, §5

[15] = test system: redroot pigweed (Amaranthus retrofiexus, AMARE); assay: as above; conditions: PRE emergent, 14 days after application, rating scale 0-100
Source text: as §1, §2, §3, §4, §5

[16] = test system: large crabgrass (Digitaria sanguinalis, DIGSA); assay: as above; conditions: PRE emergent, 14 days after application, rating scale 0-100
Source text: as §1, §2, §3, §4, §5

[17] = test system: common ragweed (Ambrosia artemisiifolia L., AMBEL); assay: as above; conditions: PRE emergent, 14 days after application, rating scale 0-100
Source text: as §1, §2, §3, §4, §5

[18] = test system: sicklepod (Cassia obtusifolia, CASOB); assay: as above; conditions: PRE emergent, 14 days after application, rating scale 0-100
Source text: as §1, §2, §3, §4, §5

[19] = test system: ivyleaf morningglory (Ipomoea hederacea, IPOHE); assay: as above; conditions: PRE emergent, 14 days after application, rating scale 0-100
Source text: as §1, §2, §3, §4, §5

[20] = test system: lambsquarters (Chenopodium album, CHEAL); assay: as above; conditions: PRE emergent, 14 days after application, rating scale 0-100
Source text: as §1, §2, §3, §4, §5

[21] = test system: cocklebur (Xanthium strumarium, XANST); assay: as above; conditions: PRE emergent, 14 days after application, rating scale 0-100
Source text: as §1, §2, §3, §4, §5

[22] = test system: johnsongrass (Sorghum halepense, SORHA); assay: as above; conditions: PRE emergent, 14 days after application, rating scale 0-100
Source text: as §1, §2, §3, §4, §5

[23] = 63 g ai/ha, scale 0-100 (0 no damage, 100 complete death)

SMILES: CC(=NNC(=O)c1cc(-n2c(=O)cc(C(F)(F)F)n(C)c2=O)c(F)cc1Cl)C(C)(C)C [Compound 6-5, 2-chloro-5-(3,6-dihydro-3-methyl-2,6-dioxo-4-(trifluoromethyl)-1(2H)-pyrimidinyl)-4-fluoro-benzoic Acid, 2-(1,2,2-trimethylpropylidene)hydrazide]
- phytotoxicity rating ECHCO ([1]; 63 g ai/ha): 80
- phytotoxicity rating ECHCO ([1]; 250 g ai/ha): 95
- phytotoxicity rating SETVI ([2]; 63 g ai/ha): 30
- phytotoxicity rating SETVI ([2]; 250 g ai/ha): 55
- phytotoxicity rating ABUTH ([3]; 63 g ai/ha): 65
- phytotoxicity rating ABUTH ([3]; 250 g ai/ha): 100
- phytotoxicity rating AMARE [4, 23]: 70
- phytotoxicity rating AMARE ([4]; 250 g ai/ha, scale 0-100): 100
- phytotoxicity rating DIGSA ([5]; 63 g ai/ha): 75
- phytotoxicity rating DIGSA ([5]; 250 g ai/ha): 80
- phytotoxicity rating AMBEL ([6]; 63 g ai/ha): 60
- phytotoxicity rating AMBEL ([6]; 250 g ai/ha): 80
- phytotoxicity rating CASOB ([7]; 63 g ai/ha): 50
- phytotoxicity rating CASOB ([7]; 250 g ai/ha): 65
- phytotoxicity rating IPOHE ([8]; 63 g ai/ha): 75
- phytotoxicity rating IPOHE ([8]; 250 g ai/ha): 100
- phytotoxicity rating CHEAL ([9]; 63 g ai/ha): 60
- phytotoxicity rating CHEAL ([9]; 250 g ai/ha): 95
- phytotoxicity rating XANST ([10]; 63 g ai/ha): 70
- phytotoxicity rating XANST ([10]; 250 g ai/ha): 100
- phytotoxicity rating SORHA ([11]; 63 g ai/ha): 0
- phytotoxicity rating SORHA ([11]; 250 g ai/ha): 90
- phytotoxicity rating ECHCG ([12]; 63 g ai/ha): 55
- phytotoxicity rating ECHCG ([12]; 250 g ai/ha): 90
- phytotoxicity rating SETVI ([13]; 63 g ai/ha): 60
- phytotoxicity rating SETVI ([13]; 250 g ai/ha): 85
- phytotoxicity rating ABUTH ([14]; 63 g ai/ha): 95
- phytotoxicity rating ABUTH ([14]; 250 g ai/ha): 100
- phytotoxicity rating AMARE ([15]; 63 g ai/ha): 99
- phytotoxicity rating AMARE ([15]; 250 g ai/ha): 100
- phytotoxicity rating DIGSA ([16]; 63 g ai/ha): 90
- phytotoxicity rating DIGSA ([16]; 250 g ai/ha): 99
- phytotoxicity rating AMBEL ([17]; 63 g ai/ha): 70
- phytotoxicity rating AMBEL ([17]; 250 g ai/ha): 100
- phytotoxicity rating CASOB ([18]; 63 g ai/ha): 50
- phytotoxicity rating CASOB ([18]; 250 g ai/ha): 70
- phytotoxicity rating IPOHE ([19]; 63 g ai/ha): 100
- phytotoxicity rating IPOHE ([19]; 250 g ai/ha): 100
- phytotoxicity rating CHEAL ([20]; 63 g ai/ha): 99
- phytotoxicity rating CHEAL ([20]; 250 g ai/ha): 100
- phytotoxicity rating XANST ([21]; 63 g ai/ha): 55
- phytotoxicity rating XANST ([21]; 250 g ai/ha): 99
- phytotoxicity rating SORHA ([22]; 63 g ai/ha): 85
- phytotoxicity rating SORHA ([22]; 250 g ai/ha): 99

SMILES: CN(N=C(C(C)(C)C)C(C)(C)C)C(=O)c1cc(-n2c(=O)cc(C(F)(F)F)n(C)c2=O)c(F)cc1Cl [Compound 6-8, 2-chloro-5-(3,6-dihydro-3-methyl-2,6-dioxo-4-(trifluoromethyl)-1(2H)-pyrimidinyl)-4-fluoro-benzoic acid, 2-[1-(1,1-dimethylethyl)-2,2-dimethylpropylidene]-1-methylhydrazide]
- phytotoxicity rating ECHCO ([1]; 63 g ai/ha): 60
- phytotoxicity rating ECHCO ([1]; 250 g ai/ha): 85
- phytotoxicity rating SETVI ([2]; 63 g ai/ha): 50
- phytotoxicity rating SETVI ([2]; 250 g ai/ha): 75
- phytotoxicity rating ABUTH ([3]; 63 g ai/ha): 50
- phytotoxicity rating ABUTH ([3]; 250 g ai/ha): 100
- phytotoxicity rating AMARE [4, 23]: 99
- phytotoxicity rating AMARE ([4]; 250 g ai/ha, scale 0-100): 100
- phytotoxicity rating DIGSA ([5]; 63 g ai/ha): 50
- phytotoxicity rating DIGSA ([5]; 250 g ai/ha): 60
- phytotoxicity rating AMBEL ([6]; 63 g ai/ha): 70
- phytotoxicity rating AMBEL ([6]; 250 g ai/ha): 70
- phytotoxicity rating CASOB ([7]; 63 g ai/ha): 50
- phytotoxicity rating CASOB ([7]; 250 g ai/ha): 60
- phytotoxicity rating IPOHE ([8]; 63 g ai/ha): 100
- phytotoxicity rating IPOHE ([8]; 250 g ai/ha): 100
- phytotoxicity rating CHEAL ([9]; 63 g ai/ha): 80
- phytotoxicity rating CHEAL ([9]; 250 g ai/ha): 100
- phytotoxicity rating XANST ([10]; 63 g ai/ha): 35
- phytotoxicity rating XANST ([10]; 250 g ai/ha): 100
- phytotoxicity rating SORHA ([11]; 63 g ai/ha): 65
- phytotoxicity rating SORHA ([11]; 250 g ai/ha): 95
- phytotoxicity rating ECHCG ([12]; 63 g ai/ha): 30
- phytotoxicity rating ECHCG ([12]; 250 g ai/ha): 85
- phytotoxicity rating SETVI ([13]; 63 g ai/ha): 55
- phytotoxicity rating SETVI ([13]; 250 g ai/ha): 99
- phytotoxicity rating ABUTH ([14]; 63 g ai/ha): 99
- phytotoxicity rating ABUTH ([14]; 250 g ai/ha): 99
- phytotoxicity rating AMARE ([15]; 63 g ai/ha): 100
- phytotoxicity rating AMARE ([15]; 250 g ai/ha): 100
- phytotoxicity rating DIGSA ([16]; 63 g ai/ha): 60
- phytotoxicity rating DIGSA ([16]; 250 g ai/ha): 95
- phytotoxicity rating AMBEL ([17]; 63 g ai/ha): 0
- phytotoxicity rating AMBEL ([17]; 250 g ai/ha): 99
- phytotoxicity rating CASOB ([18]; 63 g ai/ha): 20
- phytotoxicity rating CASOB ([18]; 250 g ai/ha): 70
- phytotoxicity rating IPOHE ([19]; 63 g ai/ha): 60
- phytotoxicity rating IPOHE ([19]; 250 g ai/ha): 100
- phytotoxicity rating CHEAL ([20]; 63 g ai/ha): 100
- phytotoxicity rating CHEAL ([20]; 250 g ai/ha): 100
- phytotoxicity rating XANST ([21]; 63 g ai/ha): 0
- phytotoxicity rating XANST ([21]; 250 g ai/ha): 70
- phytotoxicity rating SORHA ([22]; 63 g ai/ha): 55
- phytotoxicity rating SORHA ([22]; 250 g ai/ha): 100
